From PubChem BioAssay AID2060509 (Molecular Pharmacology Branch, DTP, NCI, 2025)

Test system: 485176-168-R4-J1-PDC spheroids with HUVEC/MSC, viability
Experiment: Anticancer human tumor 485176-168-R4-J1-PDC patient-derived pancreatic adenocarcinoma cell line growth inhibition [GQUAD]
Details: for IC50: curve of first compound; for viability, T/C: stronger effect = lower value
How it was run: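 Tumor cells were grown as complex spheroids with HUVEC endothelial cells and mesenchymal stem cells as stroma. G-quadruplex stabilizers were combined with targeted agents over half-log dilutions from near the clinical Cmax, or from 10 microM.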

[1] = second compound 0.0316 µM, first compound 0.0316 µM
[2] = second compound 0.0316 µM, first compound 0.1 µM
[3] = second compound 0.0316 µM, first compound 0.316 µM
[4] = second compound 0.0316 µM, first compound 1 µM
[5] = second compound 0.0316 µM, first compound 3.16 µM
[6] = second compound 0.0316 µM, first compound 10 µM
[7] = second compound 0.1 µM, first compound 0.0316 µM
[8] = second compound 0.1 µM, first compound 0.1 µM
[9] = second compound 0.1 µM, first compound 0.316 µM
[10] = second compound 0.1 µM, first compound 1 µM
[11] = second compound 0.1 µM, first compound 3.16 µM
[12] = second compound 0.1 µM, first compound 10 µM
[13] = second compound 0.316 µM, first compound 0.0316 µM
[14] = second compound 0.316 µM, first compound 0.1 µM
[15] = second compound 0.316 µM, first compound 0.316 µM
[16] = second compound 0.316 µM, first compound 1 µM
[17] = second compound 0.316 µM, first compound 3.16 µM
[18] = second compound 0.316 µM, first compound 10 µM
[19] = second compound 1 µM, first compound 0.0316 µM
[20] = second compound 1 µM, first compound 0.1 µM
[21] = second compound 1 µM, first compound 0.316 µM
[22] = second compound 1 µM, first compound 1 µM
[23] = second compound 1 µM, first compound 3.16 µM
[24] = second compound 1 µM, first compound 10 µM
[25] = second compound 3.16 µM, first compound 0.0316 µM
[26] = second compound 3.16 µM, first compound 0.1 µM
[27] = second compound 3.16 µM, first compound 0.316 µM
[28] = second compound 3.16 µM, first compound 1 µM
[29] = second compound 3.16 µM, first compound 3.16 µM
[30] = second compound 3.16 µM, first compound 10 µM
[31] = second compound 10 µM, first compound 0.0316 µM
[32] = second compound 10 µM, first compound 0.1 µM
[33] = second compound 10 µM, first compound 0.316 µM
[34] = second compound 10 µM, first compound 1 µM
[35] = second compound 10 µM, first compound 3.16 µM
[36] = second compound 10 µM, first compound 10 µM
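Also: spheroids exposed to compounds for seven days before readout.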
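For viability, T/C in this document: percent viability relative to DMSO vehicle control wells as 100%.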

Nc1ccn(C2OC(CO)C(O)C2(F)F)c(=O)n1 (stereo not given) + Cc1cnc(CNC(=O)c2c(=O)c3ccc(N4CCCN(C)CC4)nc3n3c2sc2ccccc23)cn1
IC50 (second compound 0.0316 µM): 42.2 nM
IC50 (second compound 0.1 µM): 33.1 nM
IC50 (second compound 0.316 µM): 42.6 nM
IC50 (second compound 1 µM): < 31.6 nM
IC50 (second compound 3.16 µM): < 31.6 nM
IC50 (second compound 10 µM): < 31.6 nM
viability, T/C [1]: 60.9%
viability, T/C [2]: 17.7%
viability, T/C [3]: 11%
viability, T/C [4]: 8.82%
viability, T/C [5]: 8.83%
viability, T/C [6]: 9.73%
viability, T/C [7]: 51.1%
viability, T/C [8]: 24.9%
viability, T/C [9]: 7.73%
viability, T/C [10]: 11.8%
viability, T/C [11]: 11.2%
viability, T/C [12]: 12.9%
viability, T/C [13]: 60.3%
viability, T/C [14]: 22%
viability, T/C [15]: 10.2%
viability, T/C [16]: 10.3%
viability, T/C [17]: 11.5%
viability, T/C [18]: 11.2%
viability, T/C [19]: 40.8%
viability, T/C [20]: 19.7%
viability, T/C [21]: 11.4%
viability, T/C [22]: 11.6%
viability, T/C [23]: 12.7%
viability, T/C [24]: 11.7%
viability, T/C [25]: 43.6%
viability, T/C [26]: 20.3%
viability, T/C [27]: 11.1%
viability, T/C [28]: 9.17%
viability, T/C [29]: 12.5%
viability, T/C [30]: 12.6%
viability, T/C [31]: 37%
viability, T/C [32]: 24.6%
viability, T/C [33]: 10.4%
viability, T/C [34]: 10.4%
viability, T/C [35]: 11.1%
viability, T/C [36]: 9.2%

CC1COCCN1c1cc(C2(O)CC3CCC(C2)O3)c2cnn(-c3ccn[nH]3)c2n1 (stereo not given) + CN(C)c1ccc(Nc2c3ccc(NC(=O)CCN4CCCC4)cc3nc3cc(NC(=O)CCN4CCCC4)ccc23)cc1
IC50 (second compound 0.0316 µM): 101 nM
IC50 (second compound 0.1 µM): 120 nM
IC50 (second compound 0.316 µM): 98.5 nM
IC50 (second compound 1 µM): 91 nM
IC50 (second compound 3.16 µM): 125 nM
IC50 (second compound 10 µM): 99.6 nM
viability, T/C [1]: 79.4%
viability, T/C [2]: 49.7%
viability, T/C [3]: 25.9%
viability, T/C [4]: 9.43%
viability, T/C [5]: 12%
viability, T/C [6]: 7.83%
viability, T/C [7]: 66%
viability, T/C [8]: 56.1%
viability, T/C [9]: 16.4%
viability, T/C [10]: 9.58%
viability, T/C [11]: 11.2%
viability, T/C [12]: 8.08%
viability, T/C [13]: 70.3%
viability, T/C [14]: 49.6%
viability, T/C [15]: 23%
viability, T/C [16]: 10.9%
viability, T/C [17]: 9.72%
viability, T/C [18]: 8.92%
viability, T/C [19]: 80.3%
viability, T/C [20]: 47.1%
viability, T/C [21]: 21.6%
viability, T/C [22]: 9.7%
viability, T/C [23]: 10.3%
viability, T/C [24]: 8.64%
viability, T/C [25]: 72.2%
viability, T/C [26]: 54.2%
viability, T/C [27]: 30%
viability, T/C [28]: 10.4%
viability, T/C [29]: 11.8%
viability, T/C [30]: 7.71%
viability, T/C [31]: 67.1%
viability, T/C [32]: 50.2%
viability, T/C [33]: 21.1%
viability, T/C [34]: 11.6%
viability, T/C [35]: 9.48%
viability, T/C [36]: 6.52%

CC(C)(O)C1CCC(Nc2ccc3ncc(-c4cccc(C(F)(F)F)c4)n3n2)CC1 (stereo not given) + Cc1[nH]c2ccc(F)cc2c1-c1nc2c3cccnc3c3ncccc3c2[nH]1
IC50 (second compound 0.0316 µM): > 10000 nM
IC50 (second compound 0.1 µM): > 10000 nM
IC50 (second compound 0.316 µM): 8530 nM
IC50 (second compound 1 µM): 2590 nM
IC50 (second compound 3.16 µM): 2760 nM
IC50 (second compound 10 µM): 2560 nM
viability, T/C [1]: 80.2%
viability, T/C [2]: 110%
viability, T/C [3]: 84.5%
viability, T/C [4]: 81.3%
viability, T/C [5]: 57.7%
viability, T/C [6]: 54.7%
viability, T/C [7]: 93.2%
viability, T/C [8]: 89.3%
viability, T/C [9]: 86.8%
viability, T/C [10]: 88.4%
viability, T/C [11]: 61%
viability, T/C [12]: 59.9%
viability, T/C [13]: 93.6%
viability, T/C [14]: 100%
viability, T/C [15]: 86.8%
viability, T/C [16]: 82.3%
viability, T/C [17]: 58%
viability, T/C [18]: 49.1%
viability, T/C [19]: 82.9%
viability, T/C [20]: 93.1%
viability, T/C [21]: 108%
viability, T/C [22]: 77.6%
viability, T/C [23]: 47.3%
viability, T/C [24]: 40.5%
viability, T/C [25]: 76.9%
viability, T/C [26]: 83.7%
viability, T/C [27]: 88.6%
viability, T/C [28]: 78.6%
viability, T/C [29]: 46.2%
viability, T/C [30]: 33.1%
viability, T/C [31]: 92%
viability, T/C [32]: 55.6%
viability, T/C [33]: 70.3%
viability, T/C [34]: 75.3%
viability, T/C [35]: 40.3%
viability, T/C [36]: 29.5%

CC1COCCN1c1cc(C2(S(C)(=N)=O)CC2)nc(-c2ccnc3[nH]ccc23)n1 (stereo not given) + Cc1[nH]c2ccc(F)cc2c1-c1nc2c3cccnc3c3ncccc3c2[nH]1
IC50 (second compound 0.0316 µM): 1350 nM
IC50 (second compound 0.1 µM): 1840 nM
IC50 (second compound 0.316 µM): 1830 nM
IC50 (second compound 1 µM): 1910 nM
IC50 (second compound 3.16 µM): 1260 nM
IC50 (second compound 10 µM): 1240 nM
viability, T/C [1]: 110%
viability, T/C [2]: 90.4%
viability, T/C [3]: 97.8%
viability, T/C [4]: 53.6%
viability, T/C [5]: 32%
viability, T/C [6]: 15.5%
viability, T/C [7]: 89.4%
viability, T/C [8]: 103%
viability, T/C [9]: 85.5%
viability, T/C [10]: 69.9%
viability, T/C [11]: 32.7%
viability, T/C [12]: 16.4%
viability, T/C [13]: 88.3%
viability, T/C [14]: 103%
viability, T/C [15]: 84.8%
viability, T/C [16]: 66.9%
viability, T/C [17]: 35.2%
viability, T/C [18]: 14.1%
viability, T/C [19]: 92%
viability, T/C [20]: 97.3%
viability, T/C [21]: 96.5%
viability, T/C [22]: 66.7%
viability, T/C [23]: 36.4%
viability, T/C [24]: 13.7%
viability, T/C [25]: 83.5%
viability, T/C [26]: 89.9%
viability, T/C [27]: 75.5%
viability, T/C [28]: 57.6%
viability, T/C [29]: 24.7%
viability, T/C [30]: 14.7%
viability, T/C [31]: 84.7%
viability, T/C [32]: 104%
viability, T/C [33]: 80.9%
viability, T/C [34]: 55.6%
viability, T/C [35]: 26.4%
viability, T/C [36]: 13.8%

COc1ncnc(C2CC2)c1-c1ncc2cnn(Cc3ccc(-c4nc(C(F)(F)F)cn4C(C)C)cc3)c2n1 + Cc1cnc(CNC(=O)c2c(=O)c3ccc(N4CCCN(C)CC4)nc3n3c2sc2ccccc23)cn1
IC50 (second compound 0.0316 µM): > 10000 nM
IC50 (second compound 0.1 µM): > 10000 nM
IC50 (second compound 0.316 µM): > 10000 nM
IC50 (second compound 1 µM): < 31.6 nM
IC50 (second compound 3.16 µM): < 31.6 nM
IC50 (second compound 10 µM): < 31.6 nM
viability, T/C [1]: 102%
viability, T/C [2]: 83.6%
viability, T/C [3]: 88.9%
viability, T/C [4]: 89.7%
viability, T/C [5]: 107%
viability, T/C [6]: 83.7%
viability, T/C [7]: 77.3%
viability, T/C [8]: 86.8%
viability, T/C [9]: 76.8%
viability, T/C [10]: 66.2%
viability, T/C [11]: 67%
viability, T/C [12]: 81%
viability, T/C [13]: 54.6%
viability, T/C [14]: 65.4%
viability, T/C [15]: 56.4%
viability, T/C [16]: 73.7%
viability, T/C [17]: 61.6%
viability, T/C [18]: 62.9%
viability, T/C [19]: 50.4%
viability, T/C [20]: 44.1%
viability, T/C [21]: 57.7%
viability, T/C [22]: 52.5%
viability, T/C [23]: 58.3%
viability, T/C [24]: 54.9%
viability, T/C [25]: 45.1%
viability, T/C [26]: 47.6%
viability, T/C [27]: 47%
viability, T/C [28]: 40.4%
viability, T/C [29]: 43.8%
viability, T/C [30]: 47%
viability, T/C [31]: 36.1%
viability, T/C [32]: 47.7%
viability, T/C [33]: 40.3%
viability, T/C [34]: 34.4%
viability, T/C [35]: 40.5%
viability, T/C [36]: 39.6%
